Here are results for 50 molecules from patent US20180298010A1, “PRMT5 INHIBITORS AND USES THEREOF” (Epizyme, Inc., priority 2012, published 2018).

The test deals with T1, PRMT5/MEP50 (Homo sapiens, UniProt O14744).
T1 construct: Flag-PRMT5; 6His-MEP50
The experiment in a line: PRMT5 Biochemical Assay (PRMT5/MEP50 enzyme assay on peptide substrate, 3H-SAM Flashplate). From the text:
General Materials. S-adenosylmethionine (SAM), S-adenosylhomocysteine (SAH), bicine, KCl, Tween20, dimethylsulfoxide (DMSO), bovine skin gelatin (BSG), and Tris(2-carboxyethyl)phosphine hydrochloride solution (TCEP) were purchased from Sigma-Aldrich at the highest level of purity possible. ^3H-SAM was purchase from American Radiolabeled Chemicals with a specific activity of 80 Ci/mmol. 384-well streptavidin Flashplates were purchased from PerkinElmer.
Substrates. Peptide representative of human histone H4 residues 1-15 was synthesized with a C-terminal linker-affinity tag motif and a C-terminal amide cap by 21st Century Biochemicals. The peptide was high high-perfomance liquid chromatography (HPLC) purified to greater than 95% purity and confirmed by liquid chromatography mass spectrometry (LC-MS). The sequence was Ac-[…][K-Biot]-amide (SEQ ID NO.:3).
Molecular Biology: Full-length human PRMT5 (NM_006109.3) transcript variant 1 clone was amplified from a fetal brain cDNA library, incorporating flanking 5′ sequence encoding a FLAG tag ([…]) (SEQ ID NO.:4) fused directly to Ala 2 of PRMT5. Full-length human MEP50 (NM_024102) clone was amplified from a human testis cDNA library incorporating a 5′ sequence encoding a 6-histidine tag (MHHHHHH) (SEQ ID NO.:5) fused directly to Arg 2 of MEP50. The amplified genes were sublconed into pENTR/D/TEV (Life Technologies) and subsequently transferred by Gateway™ attL×attR recombination to pDEST8 baculvirus expression vector (Life Technologies).
Protein Expression. Recombinant baculovirus and Baculovirus-Infected Insect Cells (BIIC) were generated according to Bac-to-Bac kit instructions (Life Technologies) and Wasilko, 2006, respectively. Protein over-expression was accomplished by infecting exponentially growing Spodoptera frugiperda (SF9) cell culture at 1.2×10^6cell/ml with a 5000 fold dilution of BIIC stock. Infections were carried out at 27° C. for 72 hours, harvested by centrifugation, and stored at −80° C. for purification.
Protein Purification. […] Flag-PRMT5/6His-MeP50 was eluted with 300 mM Imidazole in the same buffer. The purity of recovered protein was 87%. Reference: Wasilko, D. J. and S. E. Lee: “TIPS: titerless infected-cells preservation and scale-up” Bioprocess J., 5 (2006), pp. 29-32.
General Procedure for PRMT5/MEP50 Enzyme Assays on Peptide Substrates. The assays were all performed in a buffer consisting of 20 mM Bicine (pH=7.6), 1 mM TCEP, 0.005% BSG, and 0.002% Tween20, prepared on the day of use. Compounds in 100% DMSO (1 ul) were spotted into a polypropylene 384-well V-bottom plates (Greiner) using a Platemate Plus outfitted with a 384-channel head (Thermo Scientific). DMSO (1 ul) was added to Columns 11, 12, 23, 24, rows A-H for the maximum signal control and 1 ul of SAH, a known product and inhibitor of PRMT5/MEP50, was added to columns 11, 12, 23, 24, rows I-P for the minimum signal control. A cocktail (40 ul) containing the PRMT5/MEP50 enzyme and the peptide was added by Multidrop Combi (Thermo-Fisher). The compounds were allowed to incubate with PRMT5/MEP50 for 30 min at 25 degrees Celsius, then a cocktail (10 ul) containing ^3H-SAM was added to initiate the reaction (final volume=51 ul). The final concentrations of the components were as follows: PRMT5/MEP50 was 4 nM, ^3H-SAM was 75 nM, peptide was 40 nM, SAH in the minimum signal control wells was 100 uM, and the DMSO concentration was […]. The assays were stopped by the addition of non-radioactive SAM (10 ul) to a final concentration of 600 uM, which dilutes the ^3H-SAM to a level where its incorporation into the peptide substrate is no longer detectable. 50 ul of the reaction in the 384-well polypropylene plate was then transferred to a 384-well Flashplate and the biotinylated peptides were allowed to bind to the streptavidin surface for at least 1 hour before being washed three times with 0.1% Tween20 in a Biotek ELx405 plate washer. […]

Each structure is given as a SMILES string.

For orientation: IC50 means the concentration that inhibits the measured activity by half.

T1 sequence (O14744 with tags, fused parts or gaps): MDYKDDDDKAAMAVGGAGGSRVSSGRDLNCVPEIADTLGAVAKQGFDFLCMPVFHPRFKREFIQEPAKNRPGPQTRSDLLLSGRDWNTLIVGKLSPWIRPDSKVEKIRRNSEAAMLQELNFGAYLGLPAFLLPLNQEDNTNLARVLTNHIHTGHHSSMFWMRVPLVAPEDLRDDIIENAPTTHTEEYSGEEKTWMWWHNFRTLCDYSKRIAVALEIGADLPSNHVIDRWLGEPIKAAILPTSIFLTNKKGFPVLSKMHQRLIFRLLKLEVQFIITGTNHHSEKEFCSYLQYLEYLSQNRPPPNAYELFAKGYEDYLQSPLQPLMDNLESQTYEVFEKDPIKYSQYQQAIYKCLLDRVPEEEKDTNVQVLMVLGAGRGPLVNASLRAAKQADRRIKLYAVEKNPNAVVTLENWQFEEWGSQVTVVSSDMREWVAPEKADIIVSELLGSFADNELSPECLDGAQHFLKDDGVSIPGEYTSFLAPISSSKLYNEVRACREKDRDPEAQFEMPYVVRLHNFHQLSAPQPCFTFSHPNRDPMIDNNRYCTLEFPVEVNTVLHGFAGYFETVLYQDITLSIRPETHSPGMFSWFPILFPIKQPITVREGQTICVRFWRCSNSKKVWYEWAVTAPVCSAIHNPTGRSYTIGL
T1 sequence (Q9BQA1 with tags, fused parts or gaps partner): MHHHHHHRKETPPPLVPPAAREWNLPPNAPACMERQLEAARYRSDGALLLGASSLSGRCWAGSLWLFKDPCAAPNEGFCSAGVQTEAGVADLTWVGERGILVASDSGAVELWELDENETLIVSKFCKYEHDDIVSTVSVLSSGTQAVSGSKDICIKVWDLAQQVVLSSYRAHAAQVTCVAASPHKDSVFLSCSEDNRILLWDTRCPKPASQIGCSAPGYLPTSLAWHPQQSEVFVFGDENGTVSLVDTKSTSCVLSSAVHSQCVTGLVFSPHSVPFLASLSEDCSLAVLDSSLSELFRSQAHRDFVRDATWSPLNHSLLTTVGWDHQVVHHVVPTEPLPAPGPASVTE

As for `OC(COc1cccc(CNC2CCNCC2)c1)CN1CCc2ccccc2C1` (centres unmarked) [Compound 13], the IC50 lay within 1000 to 10000 nM.
With `OC(COc1cccc(-c2ccccc2)c1)CN1CCc2ccccc2C1` (centres unmarked) [Compound 43, 1-([1,1′-biphenyl]-3-yloxy)-3-(3,4-dihydroisoquinolin-2(1H)-yl) propan-2-ol], the IC50 was in the range of 101 to 1000 nM.
For the molecule `OC(COCC1CC1)CN1CCc2ccccc2C1` (centres unmarked) [Compound 303], the IC50 was in the range of 1000 to 10000 nM.
For the molecule `OC(COC1CCN(Cc2ccccc2)C1)CN1CCc2ccccc2C1` (centres unmarked) [Compound 35], the IC50 lay within 1000 to 10000 nM.
For `OC(COc1cccc(-c2cncnc2)c1)CN1CCc2ccccc2C1` (centres unmarked) [Compound 140] the value was 1000 to 10000 nM; for `Cn1nccc1C(=O)Nc1cccc(OCC(O)CN2CCc3ccccc3C2)c1` (centres unmarked) [Compound 160], 1000 to 10000 nM; for `COc1ccc(-c2cccc(OCC(O)CN3CCc4ccccc4C3)c2)c(Cl)c1` (centres unmarked) [Compound 88], 101 to 1000 nM.
For `CN(C(=O)c1cccnc1)c1cccc(OCC(O)CN2CCc3ccccc3C2)c1` (centres unmarked) [Compound 204] the value was 1000 to 10000 nM; for `CN(C(=O)c1cocn1)c1cccc(OCC(O)CN2CCc3ccccc3C2)c1` (centres unmarked) [Compound 198], 10000 to 40000 nM.
On to `OC(COc1cccc(-c2csc3ccccc23)c1)CN1CCc2ccccc2C1` (centres unmarked) [Compound 170], for which the IC50 was in the range of 101 to 1000 nM.
Consider `OC(COc1cccc(CNC2CCCC2)c1)CN1CCc2ccccc2C1` (centres unmarked) [Compound 1], for which the IC50 was 101 to 1000 nM.
Turning to `COc1cccc2c1CCN(CC(O)COc1cccc(-c3ccc4ncn(C)c4c3)c1)C2` (centres unmarked) [Compound 142], the IC50 was in the range of 1000 to 10000 nM.
`CN(C(=O)c1cnco1)c1cccc(OCC(O)CN2CCc3ccccc3C2)c1` (centres unmarked) [Compound 196]: the IC50 fell in the range of 1000 to 10000 nM.
As for `O=C(c1ccc(Cn2ccc(-c3ccc(OCC(O)CN4CCc5ccccc5C4)cc3)n2)cc1)N1CCCC1` (centres unmarked) [Compound 34], the figure is 1000 to 10000 nM.
As for `OC(COc1ccccc1-c1ccno1)CN1CCc2ccccc2C1` (centres unmarked) [Compound 16], the figure is 1000 to 10000 nM.
As for `O=C(Nc1cccnc1)c1cccc(OCC(O)CN2CCc3ccccc3C2)c1` (centres unmarked) [Compound 268], the figure is 1000 to 10000 nM.
`CC(C)(C)OC(=O)N1CCCC(OCC(O)CN2CCc3ccccc3C2)C1` (centres unmarked) [Compound 291]: the IC50 lay in the range of 1000 to 10000 nM.
For the molecule `CN(C(=O)c1cncn1C)c1cccc(OCC(O)CN2CCc3ccccc3C2)c1` (centres unmarked) [Compound 203], the IC50 was in the range of 1000 to 10000 nM.
As for `OC(COc1ccc(-n2cncn2)cc1)CN1CCc2ccccc2C1` (centres unmarked) [Compound 9], the figure is 1000 to 10000 nM; as for `OC(COc1cccc(-c2ccc(C(F)(F)F)cc2)c1)CN1CCc2ccccc2C1` (centres unmarked) [Compound 133], 1000 to 10000 nM; as for `Cn1cnc2cnc(-c3cccc(OCC(O)CN4CCc5ccccc5C4)c3)nc21` (centres unmarked) [Compound 191], 101 to 1000 nM.
As for `OC(COC1CCCN(c2ccccc2)C1)CN1CCc2ccccc2C1` (centres unmarked) [Compound 2], the figure is 1000 to 10000 nM.
As for `O=S1(=O)CCN(c2ccc(OCC(O)CN3CCc4ccccc4C3)cc2)CC1` (centres unmarked) [Compound 18], the figure is 1000 to 10000 nM.
Take `CC(=O)N1CC(Nc2cc(CNCC(O)CN3CCc4ccccc4C3)ncn2)C1` (centres unmarked) [Compound 311]: the IC50 is over 10000 nM.
For `OC(COCc1ccc(OCc2ccccc2)cc1)CN1CCc2ccccc2C1` (centres unmarked) [Compound 12] the value was 1000 to 10000 nM; for `CS(=O)(=O)c1ccccc1-c1cccc(OCC(O)CN2CCc3ccccc3C2)c1` (centres unmarked) [Compound 131], 101 to 1000 nM; for `CC(C)n1cnc2ccc(-c3cccc(OCC(O)CN4CCc5ccccc5C4)c3)cc21` (centres unmarked) [Compound 81], 101 to 1000 nM.
For `COc1ccccc1-c1cccc(OCC(O)CN2CCc3ccccc3C2)c1` (centres unmarked) [Compound 71] the value was 1000 to 10000 nM.
For `O=C(NC1CCOCC1)c1cccc(NCC(O)CN2CCc3ccccc3C2)c1` (centres unmarked) [Compound 79], the IC50 was in the range of 10000 to 40000 nM.
For `OC(COc1cccc(CN2CCCCC2)c1)CN1CCc2ccccc2C1` (centres unmarked) [Compound 14] the value was 1000 to 10000 nM.
`OC(COc1cccc(-c2ccccc2C(F)(F)F)c1)CN1CCc2ccccc2C1` (centres unmarked) [Compound 132]: the IC50 was in the range of 101 to 1000 nM.
As for `OCc1cccc(-c2cccc(OCC(O)CN3CCc4ccccc4C3)c2)c1` (centres unmarked) [Compound 72, 1-(3,4-dihydroisoquinolin-2(1H)-yl)-3-((3′-(hydroxymethyl)-[1,1′-biphenyl]-3-yl)oxy)propan-2-ol], the IC50 is 101 to 1000 nM.
With `CC(C)(C)OC(=O)N1CCC(OCC(O)CN2CCc3ccccc3C2)CC1` (centres unmarked) [Compound 292], the IC50 fell in the range of 1000 to 10000 nM.
For `Cn1cc2ccc(-c3cccc(OCC(O)CN4CCc5ccccc5C4)c3)cc2n1` (centres unmarked) [Compound 114] the value was 101 to 1000 nM.
On to `OC(COCc1cccnc1)CN1CCc2ccccc2C1` (centres unmarked) [Compound 283], for which the IC50 fell in the range of 10000 to 40000 nM.
As for `Cn1cnc2ccc(-c3cccc(OCC(O)CN4CCc5c(Cl)cccc5C4)c3)cc21` (centres unmarked) [Compound 215], the figure is 1000 to 10000 nM.
With `CC(C(O)COc1cccc(CNC2CCCC2)c1)N1CCc2ccccc2C1` (centres unmarked) [Compound 33], the IC50 is 1000 to 10000 nM.
As to `OC(COc1cccc(-c2cc(OC(F)(F)F)ccc2Cl)c1)CN1CCc2ccccc2C1` (centres unmarked) [Compound 200], the IC50 was in the range of 101 to 1000 nM.
Take `Cn1ccc(C(=O)Nc2cccc(OCC(O)CN3CCc4ccccc4C3)c2)n1` (centres unmarked) [Compound 162]: the IC50 is 1000 to 10000 nM.
As for `CC(Oc1cccc(CNC2CCCC2)c1)C(O)CN1CCc2ccccc2C1` (centres unmarked) [Compound 49], the IC50 lay in the range of 101 to 1000 nM.
For `O=c1[nH]c2ccc(-c3cccc(OCC(O)CN4CCc5ccccc5C4)c3)cc2[nH]1` (centres unmarked) [Compound 109, 5-(3-(3-(3,4-dihydroisoquinolin-2(1H)-yl)-2-hydroxypropoxy)phenyl)-1H-benzo[d]imidazol-2(3H)-one], the IC50 was 101 to 1000 nM.
On to `CC(C)n1nccc1-c1ccc(OCC(O)CN2CCc3ccccc3C2)cc1` (centres unmarked) [Compound 26], for which the IC50 fell in the range of 10000 to 40000 nM.
Consider `Cn1cnc2ccc(-c3cncc(NCC(O)CN4CCc5ccccc5C4)n3)cc21` (centres unmarked) [Compound 121, 1-(3,4-dihydroisoquinolin-2(1H)-yl)-3-((6-(1-methyl-1H-benzo[d]imidazol-6-yl)pyrazin-2-yl)amino)propan-2-ol], for which the IC50 fell in the range of 101 to 1000 nM.
Take `CS(=O)(=O)c1cccc(-c2cccc(OCC(O)CN3CCc4ccccc4C3)c2)c1` (centres unmarked) [Compound 130]: the IC50 was in the range of 101 to 1000 nM.
Consider `CN1CCN(C(=O)Cn2ccc3cnc(-c4cccc(OCC(O)CN5CCc6ccccc6C5)c4)nc32)CC1` (centres unmarked) [Compound 244], for which the IC50 fell in the range of 101 to 1000 nM.
With `CC(=O)c1ccc(-c2cccc(OCC(O)CN3CCc4ccccc4C3)c2)cc1` (centres unmarked) [Compound 137], the IC50 lay within 101 to 1000 nM.
With `CNC(=O)c1cccc(-c2cccc(OCC(O)CN3CCc4ccccc4C3)c2)c1` (centres unmarked) [Compound 186], the IC50 was in the range of 101 to 1000 nM.
As for `OC(COCc1ccccc1)CN1CCc2ccccc2C1` (centres unmarked) [Compound 308], the figure is 10000 to 40000 nM.
In the case of `O=C(c1ccc(Cn2nccc2-c2ccc(OCC(O)CN3CCc4ccccc4C3)cc2)cc1)N1CCCC1` (centres unmarked) [Compound 31, (4-((5-(4-(3-(3,4-dihydroisoquinolin-2(1H)-yl)-2-hydroxypropoxy)phenyl)-1H-pyrazol-1-yl)methyl)phenyl)(pyrrolidin-1-yl)methanone], the IC50 lay in the range of 101 to 1000 nM.
For `COc1ccc(Cl)cc1-c1cccc(OCC(O)CN2CCc3ccccc3C2)c1` (centres unmarked) [Compound 134, 1-((5′-chloro-2′-methoxy-[1,1′-biphenyl]-3-yl)oxy)-3-(3,4-dihydroisoquinolin-2(1H)-yl)propan-2-ol], the IC50 lay within 101 to 1000 nM.
